pIC50: −log10 of the molar value.
Key:
[1] = target: T1, Human synovial fluid phospholipase A2 (HSF-PLA2) (Homo sapiens, UniProt P14555); assay: Human synovial fluid phospholipase A2 (HSF-PLA2) assay; assay type: biochemical; conditions: [14C]-oleate-labeled E. coli substrate, pH 7.0, 5 min pre-incubation, 37° C., 30 minutes
T1 construct: Human synovial fluid phospholipase A2 was purified approximately 5000 fold; from tissue; host or cells: human synovial fluid
T1 sequence (P14555 21-144): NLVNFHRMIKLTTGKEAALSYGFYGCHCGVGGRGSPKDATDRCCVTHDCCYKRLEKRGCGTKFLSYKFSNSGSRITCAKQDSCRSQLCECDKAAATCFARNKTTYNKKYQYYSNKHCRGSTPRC
Method: Human synovial fluid phospholipase A2 was purified approximately 5000 fold following the procedures of Franson et al., Lung 160, 275-284 (1982) and Fawzy et al., Bio Phys. J. 49, 533a (1986). Following purification the enzyme activity was measured by established methodology using [^14 C]-oleate-labeled, autoclaved E. coli as the substrate as also shown in the above noted references. The assay was performed in a final volume of […] containing 50 mM HEPES (pH 7.0), 150 mM NaCl, 5mM CaCl2, 7 mM [14C]-oleate-labeled E. coli phospholipid and with or without the compound from one of the examples herein undergoing an assay. The compound or control vehicle was pre-incubated with the PLA2 for 5 minutes followed by addition of the E. coli substrate to initiate the reaction. The reaction was maintained at 37° C. for 30 minutes and then terminated by the addition of 2 ml tetrahydrofuran (THF). The reaction product, [14C] -oleic acid, was extracted using a 1 ml Bond Elut NH2 Solid phase extraction column. The IC50 value for the compound (mean +/- S.E.) is given in the following Table and represents the concentration of the compound required to inhibit 50% of the PLA2 activity.

[2] = system: LTB4 biosynthesis in HL-60 cells; assay: Assay for LTB4 production by HL-60 cells (LTB4 biosynthesis inhibition); assay type: cell-based; conditions: Homo sapiens; differentiated HL-60 cells, 10 min pre-incubation at 37° C., 5×10^-6 M A23187 for 5 minutes, radioimmunoassay; read-out: LTB4 Biosynthesis inhibition (HL60 cells) IC50
Method: HL-60 cells were induced to differentiate into granulocytes by a 4 day incubation with 0.8% (v/v) N,N-dimethyl formamide as disclosed in Fontana et al., Proc. Natl. Acad. Sci. 78 (6):3863-3866 (1981); Agins et al., Biochem. Biophys. Res. Comm. 126, 143-149 (1985); and Bonser et al., Biochemistry 20: 5297-5301 (1981). Prior to performing the assay, differentiated HL-60 cells were washed once with Hanks. balanced salt solution containing 0.35 mg/ml sodium bicarbonate and 10 mM HEPES pH 7.35 (HBSS). HL-60 cells (3×10^6 cells/ml) were pre-incubated with the compound tested or a control vehicle at 37° C. for 10 minutes, followed by 5 minute incubation with 5×10^-6 M calcium ionophore A23187 in a final volume of 1.0 ml. After incubation, the cells were pelleted by centrifugation and the LTB4 and PGE2 in the supernatant were quantified by radioimmunoassay. IC50 values (means +/- S.E.) for compounds herein that were tested are shown in the following Table and represent the concentrations of the compound required to inhibit 50% of LTB4 or PGE2 production by HL-60 cells stimulated with the calcium ionophore A23187.

| Compound | pIC50 [1] | pIC50 [2] |
| --- | --- | --- |
| CCCCCCCCCCCCCC#CC(=O)c1ccccc1C(=O)O [Example 6] | 4.89 |  |
| CCCCCCCCCCCCCC#CC(=O)c1cccc(C(=O)O)n1 [Example 13] | 5.60 | 6.10 |
| CCCCCCCCCCCCCC#CC(=O)c1ccc(C(=O)O)o1 [Example 12] | 4.47 | 6.30 |
| CCCCCCCCCCCCC#CC(=O)c1ccc(C(=O)O)cc1 [Example 3] | 4.85 | 6.70 |
| CCCCCCCCCCCCCC#CC(O)c1ccc(O)c(C(=O)O)c1 (stereo not drawn) [Example 16] | 4.96 | 5.10 |
| CCCCCCCCCCCCCC#CC(=O)c1cccc(C(=O)O)c1 [Example 4] | 4.96 | 6.10 |
| CCCCCCCCCCCCCC#CC(O)c1ccc(C(=O)O)o1 (stereo not drawn) [Example 11] | 4.55 | 5.62 |

Further lines, results first:

| pIC50 [1] | pIC50 [2] | Compound |
| --- | --- | --- |
| 4.55 |  | CCCCCC#CCCCCCCC#CC(O)c1cccc(C(=O)O)c1 (stereo not drawn) [Example 18] |
| 4.85 |  | CCCCCCCCCCCCCC#CC(=O)c1cccc(C(=O)NS(=O)(=O)c2ccccc2)c1 [Example 27] |
| 4.96 | 6.05 | CCCCCCCCCCCCCC#CC(=O)c1cccc(-c2nn[nH]n2)c1 [Example 30] |
| 4.82 | 6.40 | CCCCCCCCCCCCCC#CC(=O)c1ccc(C(=O)O)s1 [Example 25] |
| 4.48 | 6.40 | CCCCCCCCCCCCCC#CC(=O)c1ccc(O)c(C(=O)O)c1 [Example 17] |
| 4.38 |  | CCCCCCCCCCCCCC#CC(O)c1cccc(-c2nn[nH]n2)c1 (stereo not drawn) [Example 29] |
| 4.74 | 6.05 | CCCCCCCCCCCCCC#CC(O)c1ccc(C(=O)O)s1 (stereo not drawn) [Example 24] |
